Legend:
Conditions in all cases: in vivo
[1] = Oral bioavailability in dog at 5.5 mg/kg; assay type: ADME, organism-based, Canis lupus familiaris
[2] = Oral bioavailability in rhesus monkey at 5.5 mg/kg; assay type: ADME, organism-based, Macaca mulatta
[3] = Oral bioavailability in rat at 50.3 mg/kg; assay type: ADME, organism-based
[4] = Oral bioavailability in mouse at 50.3 mg/kg; assay type: ADME, organism-based

## Cc1cccc(-c2[nH]c(Cc3cccc(C(N)=O)c3)nc2-c2ccc3nccnc3c2)n1
[1]
  bioavailability: 84.9%
[2]
  bioavailability: 34.4%
[3]
  bioavailability: 11.4%
[4]
  bioavailability: 8.95%
